Calls of active or inactive are those of the source. The calls are words filed in the database; no cut-off is given here.
Legend:
TT = test: Inhibition of cell proliferation in human TT cells upto 10 umol/L incubated for 72 hrs by DAPI staining based analysis; type: functional; conditions: dose <= 10.0 µmol/L
Homo sapiens [1] = species: Homo sapiens; test: Inhibition of TEC Activated (unknown origin) at 1 uM in presence of ATP relative to control; values are per cent of control
[2] = AUC in adult patient with recurrent LMNA-NTRK1 rearranged colorectal cancer at 100 mg administered twice a day as powder-in-capsule or liquid formulation for 22 day by LC-MS/MS analysis; type: ADME; conditions: human, in vivo, po
[3] = molecular target: Macrophage-stimulating protein receptor (Homo sapiens) (UniProt Q04912); test: Inhibition of Ron (unknown origin) at 1 uM in presence of ATP relative to control; values are per cent of control
[4] = molecular target: Ephrin type-B receptor 4 (Homo sapiens) (UniProt P54760); test: Inhibition of EphB4 (unknown origin) at 1 uM in presence of ATP relative to control; values are per cent of control
[5] = molecular target: Calcium/calmodulin-dependent protein kinase type II subunit beta (Homo sapiens) (UniProt Q13554); test: Inhibition of CAMK2b (unknown origin) at 1 uM in presence of ATP relative to control; values are per cent of control
[6] = molecular target: Serine/threonine-protein kinase WNK2 (Homo sapiens) (UniProt Q9Y3S1); test: Inhibition of WNK2 (unknown origin) at 1 uM in presence of ATP relative to control; values are per cent of control
TCC-SUP = test: Inhibition of cell proliferation in human TCC-SUP cells upto 10 umol/L incubated for 72 hrs by DAPI staining based analysis; type: functional; conditions: dose <= 10.0 µmol/L
[7] = molecular target: Protein kinase C beta type (Homo sapiens) (UniProt P05771); test: Inhibition of PKCbetal (unknown origin) at 1 uM in presence of ATP relative to control; values are per cent of control
[8] = molecular target: Ephrin type-B receptor 1 (Homo sapiens) (UniProt P54762); test: Inhibition of EphB1 (unknown origin) at 1 uM in presence of ATP relative to control; values are per cent of control
[9] = molecular target: Ephrin type-B receptor 2 (Homo sapiens) (UniProt P29323); test: Inhibition of EphB2 (unknown origin) at 1 uM in presence of ATP relative to control; values are per cent of control
Homo sapiens [10] = species: Homo sapiens; test: Inhibition of MKK4_m (unknown origin) at 1 uM in presence of ATP relative to control; values are per cent of control
[11] = molecular target: MAP kinase-activated protein kinase 3 (Homo sapiens) (UniProt Q16644); test: Inhibition of MAPKAP-K3 (unknown origin) at 1 uM in presence of ATP relative to control; values are per cent of control
[12] = molecular target: Serine/threonine-protein kinase MRCK alpha (Homo sapiens) (UniProt Q5VT25); test: Inhibition of MRCKalpha (unknown origin) at 1 uM in presence of ATP relative to control; values are per cent of control
[13] = molecular target: MAP kinase-activated protein kinase 5 (Homo sapiens) (UniProt Q8IW41); test: Inhibition of MAPKAP-K5 (unknown origin) at 1 uM in presence of ATP relative to control; values are per cent of control
[14] = AUC in adult patient with recurrent LMNA-NTRK1 rearranged colorectal cancer at 100 mg administered twice a day as powder-in-capsule or liquid formulation for 15 day by LC-MS/MS analysis; type: ADME; conditions: human, in vivo, po
MDA-MB-468 = test: Inhibition of cell proliferation in human MDA-MB-468 cells upto 10 umol/L incubated for 72 hrs by DAPI staining based analysis; type: functional; conditions: dose <= 10.0 µmol/L
[15] = molecular target: G protein-coupled receptor kinase 5 (Homo sapiens) (UniProt P34947); test: Inhibition of GRK5 (unknown origin) at 1 uM in presence of ATP relative to control; values are per cent of control
[16] = Inhibition of human extracellular domain deleted TRKA V573M mutant expressed in mouse NIH3T3 cells assessed as reduction in TRKA phosphorylation incubated for 1 hrs by ELISA; type: cell-based; conditions: NIH3T3, 1 h
OE19 = test: Inhibition of cell proliferation in human OE19 cells upto 10 umol/L incubated for 72 hrs by DAPI staining based analysis; type: functional; conditions: dose <= 10.0 µmol/L
SK-BR-3 = test: Inhibition of cell proliferation in human SK-BR-3 cells upto 10 umol/L incubated for 72 hrs by DAPI staining based analysis; type: functional; conditions: dose <= 10.0 µmol/L
[17] = molecular target: Tyrosine-protein kinase Lck (Homo sapiens) (UniProt P06239); test: Inhibition of Lck (unknown origin) at 1 uM in presence of ATP relative to control; values are per cent of control
[18] = molecular target: Inhibitor of nuclear factor kappa-B kinase subunit alpha (Homo sapiens) (UniProt O15111); test: Inhibition of IKKalpha (unknown origin) at 1 uM in presence of ATP relative to control; values are per cent of control
[19] = molecular target: SRSF protein kinase 3 (Homo sapiens) (UniProt Q9UPE1); test: Inhibition of MSSK1 (unknown origin) at 1 uM in presence of ATP relative to control; values are per cent of control
[20] = molecular target: Mitogen-activated protein kinase 12 (Homo sapiens) (UniProt P53778); test: Inhibition of p38gamma (unknown origin) at 1 uM in presence of ATP relative to control; values are per cent of control
NCI-H520 = test: Inhibition of cell proliferation in human NCI-H520 cells upto 10 umol/L incubated for 72 hrs by DAPI staining based analysis; type: functional; conditions: dose <= 10.0 µmol/L
[21] = molecular target: Homeodomain-interacting protein kinase 2 (Homo sapiens) (UniProt Q9H2X6); test: Inhibition of HIPK2 (unknown origin) at 1 uM in presence of ATP relative to control; values are per cent of control
[22] = Cmax in pediatric patient with recurrent ETV6-NTRK3-rearranged infantile fibrosarcoma at 20 mg administered twice a day as liquid formulation for 1 day by LC-MS/MS analysis; type: ADME; conditions: human, in vivo
SCC-9 = test: Inhibition of cell proliferation in human SCC-9 cells upto 10 umol/L incubated for 72 hrs by DAPI staining based analysis; type: functional; conditions: dose <= 10.0 µmol/L
[23] = molecular target: Serine/threonine-protein kinase TAO3 (Homo sapiens) (UniProt Q9H2K8); test: Inhibition of TAO3 (unknown origin) at 1 uM in presence of ATP relative to control; values are per cent of control

Chain of Serine/threonine-protein kinase WNK2 (Homo sapiens) (Q9Y3S1 whole entry): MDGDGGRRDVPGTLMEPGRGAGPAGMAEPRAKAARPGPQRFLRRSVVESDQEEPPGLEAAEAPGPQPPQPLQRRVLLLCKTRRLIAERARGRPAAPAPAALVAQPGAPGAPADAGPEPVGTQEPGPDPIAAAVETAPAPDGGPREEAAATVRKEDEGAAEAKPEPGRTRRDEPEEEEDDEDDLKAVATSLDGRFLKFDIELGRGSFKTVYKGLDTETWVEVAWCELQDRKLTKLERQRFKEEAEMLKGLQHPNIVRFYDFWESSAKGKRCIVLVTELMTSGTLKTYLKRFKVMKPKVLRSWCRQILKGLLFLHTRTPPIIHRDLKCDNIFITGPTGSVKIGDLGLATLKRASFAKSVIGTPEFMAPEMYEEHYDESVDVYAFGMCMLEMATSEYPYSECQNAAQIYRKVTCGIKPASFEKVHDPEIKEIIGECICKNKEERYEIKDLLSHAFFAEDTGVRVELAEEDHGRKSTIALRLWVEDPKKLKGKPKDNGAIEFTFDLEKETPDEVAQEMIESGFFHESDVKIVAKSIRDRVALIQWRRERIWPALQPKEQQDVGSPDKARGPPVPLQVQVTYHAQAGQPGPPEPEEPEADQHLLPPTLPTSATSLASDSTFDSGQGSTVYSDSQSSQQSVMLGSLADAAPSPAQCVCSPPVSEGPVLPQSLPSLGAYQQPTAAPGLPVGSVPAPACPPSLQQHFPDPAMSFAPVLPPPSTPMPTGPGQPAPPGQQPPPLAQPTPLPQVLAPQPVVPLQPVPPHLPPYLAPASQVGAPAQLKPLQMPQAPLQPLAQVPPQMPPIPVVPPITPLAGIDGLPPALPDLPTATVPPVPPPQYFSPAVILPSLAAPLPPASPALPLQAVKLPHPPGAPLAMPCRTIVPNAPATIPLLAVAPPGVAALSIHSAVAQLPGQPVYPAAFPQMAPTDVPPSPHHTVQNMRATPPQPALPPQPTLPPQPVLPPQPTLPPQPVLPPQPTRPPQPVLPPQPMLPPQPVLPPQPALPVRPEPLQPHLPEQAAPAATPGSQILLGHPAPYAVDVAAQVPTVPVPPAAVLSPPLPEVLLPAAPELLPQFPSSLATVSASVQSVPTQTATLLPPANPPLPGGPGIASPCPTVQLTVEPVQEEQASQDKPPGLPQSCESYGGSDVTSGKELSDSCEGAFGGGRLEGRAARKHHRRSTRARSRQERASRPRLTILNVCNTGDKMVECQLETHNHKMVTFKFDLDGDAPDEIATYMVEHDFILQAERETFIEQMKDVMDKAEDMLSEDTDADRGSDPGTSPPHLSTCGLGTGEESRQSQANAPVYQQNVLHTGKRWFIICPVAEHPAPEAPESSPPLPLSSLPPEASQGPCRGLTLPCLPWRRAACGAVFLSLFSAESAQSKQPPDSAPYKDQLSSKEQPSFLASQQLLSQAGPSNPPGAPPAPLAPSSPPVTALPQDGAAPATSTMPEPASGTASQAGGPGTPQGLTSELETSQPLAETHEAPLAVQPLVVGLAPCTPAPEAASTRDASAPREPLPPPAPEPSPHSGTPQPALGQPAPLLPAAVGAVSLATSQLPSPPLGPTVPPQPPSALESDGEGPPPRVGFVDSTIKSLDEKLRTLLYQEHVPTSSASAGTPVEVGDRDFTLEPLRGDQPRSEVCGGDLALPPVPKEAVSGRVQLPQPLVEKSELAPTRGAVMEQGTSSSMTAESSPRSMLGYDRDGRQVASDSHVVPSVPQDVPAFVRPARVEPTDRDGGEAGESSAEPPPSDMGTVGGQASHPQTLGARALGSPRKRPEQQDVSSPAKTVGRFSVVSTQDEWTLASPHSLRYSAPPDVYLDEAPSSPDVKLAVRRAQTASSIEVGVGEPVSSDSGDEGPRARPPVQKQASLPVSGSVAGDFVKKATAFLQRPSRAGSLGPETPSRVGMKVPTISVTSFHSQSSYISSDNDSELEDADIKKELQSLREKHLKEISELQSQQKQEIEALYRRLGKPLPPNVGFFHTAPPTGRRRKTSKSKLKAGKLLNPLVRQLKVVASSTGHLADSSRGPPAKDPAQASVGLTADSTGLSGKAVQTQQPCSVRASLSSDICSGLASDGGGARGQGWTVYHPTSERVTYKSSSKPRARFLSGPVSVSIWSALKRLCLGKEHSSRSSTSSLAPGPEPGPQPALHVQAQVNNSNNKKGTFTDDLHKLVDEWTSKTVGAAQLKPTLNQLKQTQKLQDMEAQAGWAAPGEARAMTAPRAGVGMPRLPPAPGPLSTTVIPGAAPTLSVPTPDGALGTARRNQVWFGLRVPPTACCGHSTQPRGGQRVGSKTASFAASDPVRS
Chain of MAP kinase-activated protein kinase 5 (Homo sapiens) (Q8IW41 whole entry): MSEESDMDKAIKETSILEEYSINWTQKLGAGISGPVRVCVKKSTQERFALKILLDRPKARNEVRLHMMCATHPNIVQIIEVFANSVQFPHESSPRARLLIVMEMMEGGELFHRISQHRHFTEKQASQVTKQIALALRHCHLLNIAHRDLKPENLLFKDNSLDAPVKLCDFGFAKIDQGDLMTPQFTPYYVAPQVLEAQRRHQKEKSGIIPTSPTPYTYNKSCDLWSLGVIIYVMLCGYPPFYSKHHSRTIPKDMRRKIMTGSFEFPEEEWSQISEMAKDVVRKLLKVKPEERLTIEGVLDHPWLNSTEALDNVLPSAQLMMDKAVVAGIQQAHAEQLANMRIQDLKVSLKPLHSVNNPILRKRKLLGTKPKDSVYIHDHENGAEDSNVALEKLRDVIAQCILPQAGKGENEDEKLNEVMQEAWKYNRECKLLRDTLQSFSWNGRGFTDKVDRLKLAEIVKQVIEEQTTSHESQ
Chain of Ephrin type-B receptor 4 (Homo sapiens) (P54760 whole entry): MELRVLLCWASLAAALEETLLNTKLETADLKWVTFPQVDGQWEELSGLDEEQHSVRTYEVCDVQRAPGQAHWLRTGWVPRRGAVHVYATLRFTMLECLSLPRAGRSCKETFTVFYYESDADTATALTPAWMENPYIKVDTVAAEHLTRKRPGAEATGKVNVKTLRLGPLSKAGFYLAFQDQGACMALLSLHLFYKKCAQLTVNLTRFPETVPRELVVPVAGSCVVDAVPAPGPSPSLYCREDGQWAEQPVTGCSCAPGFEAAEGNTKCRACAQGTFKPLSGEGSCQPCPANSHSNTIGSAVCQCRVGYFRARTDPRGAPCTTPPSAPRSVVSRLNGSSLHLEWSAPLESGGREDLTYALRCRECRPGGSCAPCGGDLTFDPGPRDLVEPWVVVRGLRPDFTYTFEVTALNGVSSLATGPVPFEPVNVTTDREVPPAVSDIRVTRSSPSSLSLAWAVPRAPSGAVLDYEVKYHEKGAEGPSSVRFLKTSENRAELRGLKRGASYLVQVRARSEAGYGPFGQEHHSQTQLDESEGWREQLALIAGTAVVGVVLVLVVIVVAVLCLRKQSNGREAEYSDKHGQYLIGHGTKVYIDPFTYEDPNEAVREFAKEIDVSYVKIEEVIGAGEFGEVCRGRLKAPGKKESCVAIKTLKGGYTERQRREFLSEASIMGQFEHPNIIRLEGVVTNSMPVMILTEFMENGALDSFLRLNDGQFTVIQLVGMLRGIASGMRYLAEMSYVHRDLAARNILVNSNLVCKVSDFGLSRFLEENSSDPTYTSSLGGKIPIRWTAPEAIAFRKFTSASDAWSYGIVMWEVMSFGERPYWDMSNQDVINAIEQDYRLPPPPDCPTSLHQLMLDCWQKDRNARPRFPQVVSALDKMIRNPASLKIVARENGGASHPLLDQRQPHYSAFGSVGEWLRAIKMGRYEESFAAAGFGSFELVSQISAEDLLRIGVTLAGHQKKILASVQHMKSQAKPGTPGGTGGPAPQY
Chain of Macrophage-stimulating protein receptor (Homo sapiens) (Q04912 25-304 limits assumed): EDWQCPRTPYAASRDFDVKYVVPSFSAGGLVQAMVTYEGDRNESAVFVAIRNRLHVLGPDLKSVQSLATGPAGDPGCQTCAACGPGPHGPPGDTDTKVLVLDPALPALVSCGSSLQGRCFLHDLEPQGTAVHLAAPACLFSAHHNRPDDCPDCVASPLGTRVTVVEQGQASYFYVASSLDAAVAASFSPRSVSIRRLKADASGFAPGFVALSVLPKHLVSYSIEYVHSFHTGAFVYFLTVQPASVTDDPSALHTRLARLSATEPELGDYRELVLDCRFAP
Chain of Macrophage-stimulating protein receptor (Homo sapiens) (Q04912 310-1400 limits assumed): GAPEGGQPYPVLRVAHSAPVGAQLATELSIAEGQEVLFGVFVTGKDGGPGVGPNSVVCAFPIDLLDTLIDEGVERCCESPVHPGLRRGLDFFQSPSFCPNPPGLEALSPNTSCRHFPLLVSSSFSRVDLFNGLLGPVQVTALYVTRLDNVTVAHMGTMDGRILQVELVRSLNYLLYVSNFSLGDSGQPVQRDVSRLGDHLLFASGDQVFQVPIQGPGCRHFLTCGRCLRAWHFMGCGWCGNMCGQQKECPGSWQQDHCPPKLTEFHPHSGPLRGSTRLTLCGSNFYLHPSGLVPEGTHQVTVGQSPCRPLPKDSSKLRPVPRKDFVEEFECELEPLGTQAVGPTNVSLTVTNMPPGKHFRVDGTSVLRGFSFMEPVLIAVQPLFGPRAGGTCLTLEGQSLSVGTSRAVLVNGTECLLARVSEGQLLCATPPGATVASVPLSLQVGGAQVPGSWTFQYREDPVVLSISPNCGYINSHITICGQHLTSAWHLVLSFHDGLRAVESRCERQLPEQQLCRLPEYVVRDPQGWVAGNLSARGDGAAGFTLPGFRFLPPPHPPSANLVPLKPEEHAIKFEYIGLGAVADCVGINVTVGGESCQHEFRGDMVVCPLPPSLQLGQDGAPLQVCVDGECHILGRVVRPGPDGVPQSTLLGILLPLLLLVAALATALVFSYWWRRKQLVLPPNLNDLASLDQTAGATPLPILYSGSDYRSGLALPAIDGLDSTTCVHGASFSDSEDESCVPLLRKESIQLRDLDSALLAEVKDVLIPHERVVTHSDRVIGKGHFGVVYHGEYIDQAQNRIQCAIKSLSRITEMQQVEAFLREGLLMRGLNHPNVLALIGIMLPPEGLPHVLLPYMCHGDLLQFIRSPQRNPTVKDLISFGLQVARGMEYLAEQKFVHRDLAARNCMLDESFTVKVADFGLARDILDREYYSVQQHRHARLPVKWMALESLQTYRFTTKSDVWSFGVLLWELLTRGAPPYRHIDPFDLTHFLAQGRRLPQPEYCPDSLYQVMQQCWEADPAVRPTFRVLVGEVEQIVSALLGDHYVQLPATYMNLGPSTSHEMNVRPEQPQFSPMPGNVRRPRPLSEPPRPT

**Q.** What does the source list for `C[C@@H]1CCc2ncc(F)cc2[C@H]2CCCN2c2ccn3ncc(c3n2)C(=O)N1` [SELITRECTINIB]?
**A.** inhibition (TT): inactive; residual activity (Homo sapiens [1]): 112%; AUC at 528 h [2]: 3870 ng·h/mL; residual activity [3]: 88.5%; residual activity [4]: 116%; residual activity [5]: 100%; residual activity [6]: 128%; inhibition (TCC-SUP): inactive; residual activity [7]: 108%; residual activity [8]: 112%; residual activity [9]: 81%; residual activity (Homo sapiens [10]): 108%; residual activity [11]: 102%; residual activity [12]: 138%; residual activity [13]: 97%; AUC at 360 h [14]: 2620 ng·h/mL; inhibition (MDA-MB-468): inactive; residual activity [15]: 110%; IC50 [16]: 29 nM; inhibition (OE19): inactive; inhibition (SK-BR-3): inactive; residual activity [17]: 92.5%; residual activity [18]: 96.5%; residual activity [19]: 122%; residual activity [20]: 104%; inhibition (NCI-H520): inactive; residual activity [21]: 113%; Cmax [22]: 143 ng/mL; inhibition (SCC-9): inactive; residual activity [23]: 102%

Source: ChEMBL document CHEMBL5678816, “A Next-Generation TRK Kinase Inhibitor Overcomes Acquired Resistance to Prior TRK Kinase Inhibition in Patients with TRK Fusion-Positive Solid Tumors” (Cancer Discov, 2017)
